Patent US20240092803A1, “BRIDGED COMPOUNDS AS KRAS G12D INHIBITOR AND DEGRADER AND THE USE THEREOF” (BEIGENE SWITZERLAND GMBH, priority 2021, published 2024)

What was measured:
[1] = biological target: KRAS G12D HiBiT in HEK293 KRAS-G12D NanoLuc cell pool (Homo sapiens (Human), UniProt P01116, G12D); assay: KRAS G12D NanoLuc assay; format: cell-based; conditions: 24 h compound treatment
Protocol: HEK293 KRAS-G12D NanoLuc cell pool was used in this study. The cells were stable expressing KRAS G12D HiBiT and LgBiT. Cells were maintained in DMEM supplemented with 10% fetal bovine serum (Thermo Fisher), 50 units/mL penicillin and streptomycin (Thermo Fisher) and kept at 37° C. in a humidified atmosphere of 5% CO2 in air. Cells were reinstated from frozen stocks that were laid down within 30 passages from the cell pool was constructed. 20000 cells per well were seeded a 96-well White with Clear Flat bottom plate for 4 h. Cells were treated with a 10-point dilution series. The final compound concentration is from 0 to 10 μM. After 24 h compound treatment, added 20 μL of CellTiter-Fluor reagent (Promega) to plates, shook for 2 min, incubated at least 30 min in 37° C. Added 25 μL of NanoGlo Live cell reagent (Promega) to the same plate. shook by mini-shaker for 5 min. Measure Luminescence and Fluorescence (380-400nmEx/505nmEm) signals immediately using a PHERAstar FSX reader (BMG Labtech). DC50 determination was performed by fitting the curve of percent inhibition versus the log of the inhibitor concentration using Excel and GraphPad Prism 8.

[2] = biological target: KRAS G12D protein level in AsPC-1 cells (Homo sapiens (Human), UniProt P01116, G12D); assay: Western blotting assay in AsPC-1 cells; format: cell-based; conditions: 3 uM, 48 h compound treatment, Western blot
Protocol: AsPC-1 cell line was used in this study. Cells were maintained in RPMI-1640 supplemented 10% fetal bovine serum (Thermo Fisher), 50 units/mL penicillin and streptomycin (Thermo Fisher) and kept at 37° C. In a humidified atmosphere of 5% CO2 in air. Cells were reinstated from frozen stocks that were laid down within 30 passages from the original cells purchased. 400000 AsPC-1 cells per well in 1 mL culture medium were seed in the 12-well plate for 4 hours. Cells were treated with an appropriate dilution series of compounds. After 48h compound treatment, medium was aspirated, the cells were washed with PBS, and then 30 μL of 1× protein lysis buffer (Cell Signaling Technology) containing protease inhibitors (Merck) and phosphatase inhibitors (Sigma) was added. The cells were lysed, and after centrifugation, the supernatants were quantified by BCA Protein assay Kit (Thermo Fisher). 4× loading Buffer (Thermo Fisher) was added to equal amounts of total protein from each sample and heated at 95° C. for 5 minutes. […]

In the case of `Cc1ncsc1-c1ccc([C@H](C)NC(=O)[C@@H]2C[C@@H](O)CN2C(=O)[C@@H](NC(=O)CCOCCCN2CCC[C@H]2COc2nc3c(c(N4CC5CCC(C4)N5)n2)CCN(c2cccc4cccc(Cl)c24)C3)C(C)(C)C)cc1` [Example 17], the DC50 [1] is reported as 708 nM, the Dmax [1] is reported as 80% and the “KRAS G12D protein level decrease” value [2] is reported as 40%.
